{"source": "patent US20180064679A1", "about": "“METHOD FOR TREATING CANCER BASED ON LEVEL OF GLUCOCORTICOID RECEPTOR” (Abraxis BioScience, LLC, priority 2015, published 2018)", "key": {"H1755 cells": {"system": "H1755 cells", "assay": "caspase-3/7 activation (apoptosis) assay in H1755 cells", "type": "cell-based, human", "method": "H1755 cells were cultured using EMEM with 10% FBS. FBS was charcoal-filtered to remove endogenous steroids. Cells were plated at 5000 cell per well and treated 24 hours after plating. H1755 cell samples treated with DEX received DEX 30 minutes prior to administration of PTX or a vehicle control. Vehicle controls are the same as those discussed in Example 1. Additionally, during PTX and/or DEX drug dosing, a caspase-3/7 activation reagent was added to the cell samples, for example, Caspase-3/7 reagent (Essen BioScience, Ann Arbor, Mich; Catalog No. 4440). Specifically, the CELLPLAYER™ Kinetic Caspase-3/7 activation assay reagents (Essen BioScience, Ann Arbor, Mich.) were used to detect caspase-3/7 activation.\nAt time points following PTX administration the activation of the caspase-3/7 reagent was measured with, for example, an INCUCYTE™ FLR (Essen BioScience, Ann Arbor, Mich.). […] Apoptotic or apoptosing H1755 cells (caspase-3/7 positive cells) are indicated in white, as measured by caspase-3/7 activation (FIGS. 3A-3D).\nTo determine the EC50 of DEX in H1755 cells, a series of PTX concentrations were evaluated for caspase-3/7 activation across a series of DEX concentrations. […]\nH1755 cell samples were treated with 0, 0.43, 1.3, 4.12, 12.3, 37, 111, 333, 1000, or 3000 nM PTX. […] At time points following drug administration, caspase-3/7 activation was measured as discussed in Example 1."}, "H522 cell line": {"system": "H522 cell line", "assay": "caspase-3/7 activation assay in H522 cell line", "type": "cell-based", "settings": "100 nM DEX, 100 nM PTX, H522 (minimal level of GR)"}, "H23 cells": {"system": "H23 cells", "assay": "caspase-3/7 activation assay in H23 cells", "type": "cell-based", "settings": "H23 cells (low level of GR expression), data not shown"}, "MKP-1": {"system": "MKP-1", "assay": "qRT-PCR of MKP-1 mRNA in H1755 cells", "type": "cell-based, human", "settings": "100 nM DEX, H1755 cells, 1, 4 or 24 hours", "method": "(§1) H1755 and H522 cells were cultured using RPMI media that was charcoal-filtered media to remove steroids. Cell samples received one of the following treatments: vehicle control (0.1% EtOH for DEX vehicle control or 0.1% DMSO for PTX vehicle control), 100 nM DEX, 100 nM PTX, or 100 nM DEX and 100 nM PTX. At 1 hour, 4 hours, or 24 hours after drug administration, cell samples were harvested and mRNA levels of MKP-1 and SGK1 were measured via quantitative real-time polymerase chain reaction (qRT-PGR). Western blot analysis of GR, phosphorylated JNK1 (P-JNK1; phosphorylation at Thr 183 and Tyr 185), JNK1, phosphorylated c-Jun (P c-Jun; phosphorylation at Ser 73 or Ser 63), c-Jun, phosphorylated MKP1 (pMKP1; phosphorylated at Ser 359), SG1, phosphorylated MCL-1 (pMCL-1; phosphorylated at Ser 64), MCL-1, phosphorylated BCL2 (pBC1,2; phosphorylated at Ser 70), BCL2, BCLXL, cleaved caspase-3, and GAPDH (for purposes of normalization) was performed following treatment with either a vehicle control (0.1% EtOH for DEX vehicle control or 0.1% DMSO for PTX vehicle control), 100 nM DEX, 100 nM PTX, or 100 nM DEX and 100 nM PTX."}, "SGK1": {"system": "SGK1", "assay": "qRT-PCR of SGK1 mRNA in H1755 cells", "type": "cell-based, human", "settings": "100 nM DEX, H1755 cells, 1, 4 or 24 hours", "method": "as §1"}, "MAP TAU": {"system": "MAP TAU", "assay": "Western blot of MAP TAU in H1755 cells", "type": "cell-based, human", "method": "H1755 and H522 cells were analyzed by Western blot at 4 and 24 hours following administration of a vehicle control (0.1% EtOH for DEX vehicle control or 0.1% DMSO for PTX vehicle control), 100 nM DEX, 100 nM PTX, or 100 nM DEX and 100 nM PTX."}, "MDA-MB-231 cells": {"system": "MDA-MB-231 cells", "assay": "caspase-3/7 activation (apoptosis) assay in MDA-MB-231 cells", "type": "cell-based", "settings": "PTX 0-3000 nM alone, roughly 34.5 hours", "method": "MDA-MB-231 cells were cultured using Eagle's minimum essential medium (EMEM) with 10% fetal bovine serum (FBS). FBS was charcoal-filtered to remove endogenous steroids. Cells were plated at 5000 cell per well and treated 24 hours after plating. PTX doses of 3000, 1000, 333.3, 111.1, 37.0, 12.3, 4.1, 1.4, 0.5, and 0 nM were evaluated. MDA-MB-231 cell samples treated with DEX received 100 nM DEX 30 minutes prior to administration of PTX or a vehicle control. The vehicle control for DEX was 0.1% ethanol, final concentration after addition. The vehicle control for PTX was 0.1% DMSO, final concentration after addition. Additionally, during PTX and/or DEX drug dosing, a caspase-3/7 activation reagent was added to the cell samples, for example, Caspase-3/7 reagent (Essen BioScience, Ann Arbor, Mich.; Catalog No. 4440). Specifically, the CELLPLAYER™ Kinetic Caspase-3/7 activation assay reagents (Essen BioScience, Ann Arbor, Mich.) were used to detect caspase-3/7 activation.\nAt time points following PTX administration (e.g., roughly every 3 hours) the activation of the caspase-3/7 reagent was measured with, for example, an INCUCYTE™ FLR (Essen BioScience, Ann Arbor, Mich.). Activation of caspase-3/7 is indicative of an apoptotic and/or an apoptosing cell. All concentrations of PTX, both with and without DEX, were evaluated in triplicate."}, "[1]": {"system": "phosphorylated c-Jun (Ser 73)", "assay": "Western blot of phosphorylated c-Jun (Ser 73) in H1755 cells", "type": "cell-based, human", "settings": "100 nM PTX, 4 hours", "method": "(§2) H1755 and H522 cells were cultured using RPMI media that was charcoal-filtered media to remove steroids. Cell samples received one of the following treatments: vehicle control (0.1% EtOH for DEX vehicle control or 0.1% DMSO for PTX vehicle control), 100 nM DEX, 100 nM PTX, or 100 nM DEX and 100 nM PTX. At 1 hour, 4 hours, or 24 hours after drug administration, cell samples were harvested and mRNA levels of MKP-1 and SGK1 were measured via quantitative real-time polymerase chain reaction (qRT-PGR). […]\n(§3) In addition to measuring MKP-1 and SGK1 mRNA expression, a series of proteins (and their phosphorylation status) involved in stress pathway signaling were evaluated via Western blot to measure changes following treatment with DEX, PTX, or DEX and PTX. JNK1 was measured after 2 hours of treatment, P c-Jun, c-Jun, pMPK1, and SGK1 were measured after 4 hours of treatment, and other measurements were after 24 hours of treatment. […]"}, "[2]": {"system": "phosphorylated c-Jun (Ser 73)", "assay": "Western blot of phosphorylated c-Jun (Ser 73) in H522 cells", "type": "cell-based", "settings": "100 nM PTX, 4 hours", "method": "as §2, §3"}, "MCL1": {"system": "MCL1", "assay": "Western blot of MCL1 and phosphorylated MCL1", "type": "cell-based", "settings": "100 nM PTX, 24 hours, H1755 and H522 cells", "method": "as §1\n(§4) Furthermore, pro-survival markers, MCL1, BCL2, and BCLXL, were measured by Western blot to evaluate changes following treatment with DEX, PTX, or DEX and PTX. MCL1, BCL2, and BCLXL inhibit apoptosis by blocking activation of caspases, such as, caspase-3. […]"}, "phosphorylated BCL2": {"system": "phosphorylated BCL2", "assay": "Western blot of phosphorylated BCL2 in H1755 cells", "type": "cell-based, human", "settings": "100 nM PTX, 24 hours", "method": "as §1, §4"}, "BCLXL [3]": {"system": "BCLXL", "assay": "Western blot of BCLXL in H1755 cells", "type": "cell-based, human", "settings": "100 nM PTX, 24 hours", "method": "as §1, §4"}, "BCLXL [4]": {"system": "BCLXL", "assay": "Western blot of BCLXL in H522 cells", "type": "cell-based", "settings": "100 nM PTX, 24 hours", "method": "as §1, §4"}, "cleaved caspase-3 [5]": {"system": "cleaved caspase-3", "assay": "Western blot of cleaved caspase-3 in H1755 cells", "type": "cell-based, human", "settings": "100 nM PTX, 24 hours", "method": "as §1, §4"}, "cleaved caspase-3 [6]": {"system": "cleaved caspase-3", "assay": "Western blot of cleaved caspase-3 in H522 cells", "type": "cell-based", "settings": "100 nM PTX, 24 hours", "method": "as §1, §4"}, "[7]": {"system": "ERK, phosphorylated ERK, p38, and phosphorylated p38", "assay": "Western blot of MAPK pathway proteins in H1755 and H522 cells", "type": "cell-based", "settings": "100 nM DEX and/or 100 nM PTX, 4 hours", "method": "H1755 and H522 cells were analyzed by Western blot at 4 hours following administration of a vehicle control (0.1% EtOH for DEX vehicle control or 0.1% DMSO for PTX vehicle control), 100 nM DEX, 100 nM PTX, or 100 nM DEX and 100 nM PTX."}}, "data": [{"smiles": "C[C@@H]1C[C@H]2[C@@H]3CCC4=CC(=O)C=C[C@]4(C)[C@@]3(F)[C@@H](O)C[C@]2(C)[C@@]1(O)C(=O)CO", "note": "[DEX, dexamethasone]", "values": [{"measurement": "EC50", "setting": "H1755 cells; Homo sapiens, NCI-H1755, caspase-3/7 activation, series of PTX and DEX concentrations", "result": 4, "unit": "nM"}, {"measurement": "DEX antagonism of PTX-induced apoptosis", "setting": "H522 cell line", "result": "no effect"}, {"measurement": "DEX effect on PTX-induced apoptosis", "setting": "H23 cells", "result": "no effect"}, {"measurement": "up-regulation of MKP-1 mRNA by DEX, maximum", "setting": "MKP-1", "result": 8, "unit": "fold"}, {"measurement": "up-regulation of SGK1 mRNA by DEX, maximum", "setting": "SGK1", "result": 2.5, "unit": "fold"}, {"measurement": "increase of MAP TAU in cells treated with DEX and PTX", "setting": "MAP TAU; 100 nM DEX and 100 nM PTX, 24 hours", "result": 2, "unit": "fold"}, {"measurement": "DEX-induced upregulation of MAP TAU", "setting": "MAP TAU; 100 nM DEX, 24 hours after drug administration", "result": 5, "unit": "fold"}]}, {"smiles": "CC(=O)O[C@H]1C(=O)[C@@]2(C)[C@H]([C@H](OC(=O)c3ccccc3)[C@]3(O)C[C@H](OC(=O)[C@H](O)[C@@H](NC(=O)c4ccccc4)c4ccccc4)C(C)=C1C3(C)C)[C@]1(OC(C)=O)CO[C@@H]1C[C@@H]2O", "note": "[PTX, paclitaxel]", "values": [{"measurement": "level of apoptosis (as measured by level of caspase-3/7 activation)", "setting": "MDA-MB-231 cells", "result": "higher concentrations of PTX induced increased levels of apoptosis"}, {"measurement": "level of apoptosis (caspase-3/7 activation), PTX alone", "setting": "H1755 cells; 111 nM PTX", "result": "marked increase in apoptosis"}, {"measurement": "phosphorylation of c-Jun on Ser 73 following PTX treatment", "setting": "[1]", "result": "increased"}, {"measurement": "phosphorylation of c-Jun on Ser 73 following PTX treatment", "setting": "[2]", "result": "increased"}, {"measurement": "phosphorylation of MCL1", "setting": "MCL1", "result": "up-regulated"}, {"measurement": "total expression of MCL1", "setting": "MCL1", "result": "decreasing"}, {"measurement": "phosphorylation of BCL2", "setting": "phosphorylated BCL2", "result": "up-regulated"}, {"measurement": "BCLXL expression", "setting": "BCLXL [3]", "result": "down-regulated"}, {"measurement": "BCLXL expression", "setting": "BCLXL [4]", "result": "not H522 cells"}, {"measurement": "expression of cleaved caspase-3", "setting": "cleaved caspase-3 [5]", "result": "increases"}, {"measurement": "expression of cleaved caspase-3", "setting": "cleaved caspase-3 [6]", "result": "increases"}, {"measurement": "change of MAPK pathway proteins and MAPK signaling mechanisms", "setting": "[7]", "result": "minimally changed"}]}]}
